{
  "source": "patent US7943638B2",
  "about": "“Carboxamide compound and use of the same” (Sumitomo Chemical Company, Limited, priority 2005, dated 2011)",
  "tested_on": "wheat scab (Fusarium culmorum)",
  "assay": "Wheat scab (Fusarium culmorum) controlling effect test (preventive effect)",
  "format": "in vivo",
  "conditions": "500 ppm flowable preparation, foliage spray on wheat (Shirogane komugi), 23° C. high humidity 4 days, then 23° C. greenhouse 3 days",
  "experimental": "A plastic pot was charged with a sand loam, and a wheat (Name of plant variety: Shirogane komugi) was seeded, and was grown for 8 days in a greenhouse. Each flowable preparation of the present compound 4 which had been obtained according to Preparation Example 6 was diluted with water to a predetermined concentration (500 ppm) to prepare a spraying solution. Each spraying solution was foliage-sprayed so that the solution was sufficiently adhered to the above adhered to wheat leaves. After spraying, the wheat was air-dried to an extent that the spraying solution on the leaves was dried, then a spore suspension of wheat scab (Fusarium culmorum) (containing about 2000000 spores per 1 ml of the suspension) was spraying-inoculated (at a ratio of about 2 ml per one plant). After inoculation, the wheat was placed at 23° C. under high humidity for 4 days, then placed in a 23° C. greenhouse for 3 days. Thereafter, the controlling effect was investigated.\nAs a result, an area of a lesion in a plant treated with the present compound 4 was 10% or less of an area of a lesion in a non-treated plant.",
  "data": [
    {"smiles": "Cc1cc(O)c(C(=O)Nc2cccnc2)c(=O)n1C", "note": "[present compound 4, N-(3-pyridyl)-1,6-dimethyl-4-hydroxy-2-oxo-1,2-dihydropyridine-3-carboxamide]", "values": [
      {"measurement": "area of a lesion in a treated plant relative to area of a lesion in a non-treated plant", "value": "≤ 10", "unit": "%"}
    ]}
  ]
}
